Experimental data as given in patent US12473250B2, “Molecular design of new antibiotics and antibiotic adjuvants against MCR strains” (priority 2019, dated 2025).
“Also recorded” adds a separate entry of the source.

How the values were obtained:
[1] = tested on: colistin resistant MCR (−) E. Cloacae strain 7023456439; test: Synergy study: colistin MIC in the presence of compound; format: cell-based; settings: strain 7023456439 E. Cloacae
Method in brief: (§1)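 After 24 hours, MIC was read as the lowest concentration without visible growth. Drugs were tested singly and in combination by CLSI broth microdilution, equal-amount colistin:LC compound mixtures serially diluted 2-fold at a fixed synergy concentration.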

[2] = tested on: colistin resistant MCR (−) E. Coli strains; test: as above; format: cell-based
Method in brief: as §1

[3] = tested on: KLPN multi-drug resistant strains; test: Synergy of LC100 with colistin against multi-drug resistant strains (Table 5); format: cell-based, Klebsiella pneumonia
Procedure: (§2) The MICs of the individual drugs and LC compound in combinations were determined using the broth microdilution technique as recommended by the CLSI whereby the two anti-microbial agents were added in an equal amount. (e.g.: 50 μL of Colistin: 50 μL of LC compounds). Diluted media containing compounds and antibiotics will be serially diluted 2-fold, and LC compounds and antibiotics alone or in combination will be assayed at fixed synergy concentration. In all cases, the lowest concentration at which no visible growth occurred was be recorded to be the MIC value of individual and combined antibacterial agents. The results were obtained after 24 hours of incubation.

[4] = tested on: ACBA multi-drug resistant strains; test: as above; format: cell-based, Acinetobacter baumannii
Procedure: as §2

[5] = tested on: Gram positive bacteria (SA and MRSA strains); test: Antimicrobial effect on Gram positive bacteria (Table 8); format: cell-based; parameters: key to antimicrobial effect on Gram positive bacteria: MIC (concentration giving 99% inhibition), concentrations in μg; settings: compound alone
Procedure: MIC experiments of the antimicrobial agents were determined by a modified broth microdilution method in accordance with the Clinical and Laboratory Standards Institute (CLSI) guidelines using 96 well culture plates. In brief, serial dilutions of all plates were prepared at different concentrations (μg). The inoculum suspension was prepared by adding isolated colonies from a 18-20 hours on TSA plate into phosphate buffer (0.31 mM, pH 7.2) or in water for injection (BBraun) and adjusting the suspension to a turbidity equivalent to 0.5 McFarland Standard. Each well contained a final bacterial concentration of approximately 5×10^5 colony forming units (CFU)/mL. The plate was covered and incubated at 35° C. for 24 hours. […] For the microdilution plates, turbidity in wells can be measured at OD600 using TECAN infinite M200Pro. MIC was determined as […] concentration that gives a 99 percent inhibition.
The antimicrobial activity of the inventive combination was also tested against Gram positive bacteria, including the multi-drug resistant strains, such as MRSA. […] This means the combination of LC100/LC101 with colistin has broad antimicrobial spectrum, being active against both Gram positive and Gram negative bacteria.

[6] = Calcein leakage from large unilamellar vesicles; settings: vesicles of 100 nm, DOPE/DOPG=3/1
Source text: FIG. 20 refers to a graph showing calcein leakage of LC100 and LC101 using large unilamellar vesicles of 100 nm. The lipid composition of the vesicle is DOPE/DOPG=3/1, mimicking the bacterial inner membrane. […] Further increase of LC100 or LC101 leads to decrease in the florescence because of a fluorescence quenching effect.

In the case of `CCN(CC)CCCCOc1ccc(/C=C/C(=O)c2ccc(OCCCCN(CC)CC)c(CC=C(C)C)c2O)cc1` [LC100], the “Colistin MIC in the presence of the compound” value (“Colistin MIC … of the compound” for short) ([1]; compound at 5 μg (Table 2a: 5 ug/ml)) was 0.195 µg/mL, the “Colistin MIC … of the compound” value ([1]; compound at 10 μg (Table 2a: 10 ug/ml)) was less than 0.098 µg/mL and the “Colistin MIC … of the compound” value ([1]; compound at 10 μg (Table 2a: 10 ug/ml), listed as LC 100) was less than 0.0975 µg/mL. For the same compound, the “colistin level to which E. coli became sensitive in the presence of LC100” value ([2]; resistant bacteria without mcr-1) was less than 0.5 µg/mL, the “Colistin MIC … of the compound” value ([2]; strain 6083672926, MCR(−), compound at 2 μg) was less than 0.0975 µg/mL and the “Colistin MIC … of the compound” value ([2]; strain 6083672926, MCR(−), compound at 5 μg (Table 2a: 5 ug/ml)) was 0.195 µg/mL. For the same compound, the “Colistin MIC … of the compound” value ([2]; strain 6083672926, MCR(−), compound at 10 μg (Table 2a: 10 ug/ml)) was less than 0.098 µg/mL, the “Colistin MIC … of the compound” value ([2]; strain 6083672926, MCR(−), compound at 10 μg (Table 2a: 10 ug/ml), listed as LC 100) was less than 0.0975 µg/mL and the “Colistin MIC … of the compound” value ([2]; strain 7023446108, MCR(−), compound at 2 μg) was less than 0.0975 µg/mL. The “Colistin MIC … of the compound” value ([2]; strain 7023446108, MCR(−), compound at 5 μg (Table 2a: 5 ug/ml)) was 0.195 µg/mL, the “Colistin MIC … of the compound” value ([2]; strain 7023446108, MCR(−), compound at 10 μg (Table 2a: 10 ug/ml)) was less than 0.098 µg/mL and the “Colistin MIC … of the compound” value ([2]; strain 7023446108, MCR(−), compound at 10 μg (Table 2a: 10 ug/ml), listed as LC 100) was less than 0.0975 µg/mL. The “Colistin MIC … of the compound” value ([2]; strain 7033607097, MCR(−), compound at 2 μg) was less than 0.0975 µg/mL, the “Colistin MIC … of the compound” value ([2]; strain 7033607097, MCR(−), compound at 5 μg (Table 2a: 5 ug/ml)) was 0.195 µg/mL and the “Colistin MIC … of the compound” value ([2]; strain 7033607097, MCR(−), compound at 10 μg (Table 2a: 10 ug/ml)) was less than 0.098 µg/mL. For the same compound, the “Colistin MIC … of the compound” value ([2]; strain 7033607097, MCR(−), compound at 10 μg (Table 2a: 10 ug/ml), listed as LC 100) was less than 0.0975 µg/mL, the “Colistin MIC in the presence of LC100” value ([3]; strain KLPN 8852, LC 100 2 μg) was greater than 25 µg/mL and the “Colistin MIC in the presence of LC100” value ([3]; strain KLPN 8852, LC 100 5 μg) was 25 µg/mL. For the same compound, the “Colistin MIC in the presence of LC100” value ([3]; strain KLPN 15588, LC 100 2 μg) was 0.39 µg/mL, the “Colistin MIC in the presence of LC100” value ([3]; strain KLPN 15588, LC 100 5 μg) was less than 0.0975 µg/mL and the “Colistin MIC in the presence of LC100” value ([3]; strain KLPN 24076, LC 100 2 μg) was 0.39 µg/mL. For the same compound, the “Colistin MIC in the presence of LC100” value ([3]; strain KLPN 24076, LC 100 5 μg) was less than 0.0975 µg/mL, the “Colistin MIC in the presence of LC100” value ([3]; strain KLPN 27025, LC 100 2 μg) was 0.195 µg/mL and the “Colistin MIC in the presence of LC100” value ([3]; strain KLPN 27025, LC 100 5 μg) was less than 0.0975 µg/mL. The “Colistin MIC in the presence of LC100” value ([4]; strain ACBA 1010, LC 100 2 μg) was less than 0.0975 µg/mL, the “Colistin MIC in the presence of LC100” value ([4]; strain ACBA 1010, LC 100 5 μg) was less than 0.0975 µg/mL and the “Colistin MIC in the presence of LC100” value ([4]; strain ACBA 1012, LC 100 2 μg) was 0.39 µg/mL. The “Colistin MIC in the presence of LC100” value ([4]; strain ACBA 1012, LC 100 5 μg) was less than 0.0975 µg/mL, the “Colistin MIC in the presence of LC100” value ([4]; strain ACBA 43357, LC 100 2 μg) was 0.39 µg/mL and the “Colistin MIC in the presence of LC100” value ([4]; strain ACBA 43357, LC 100 5 μg) was less than 0.0975 µg/mL. The “Colistin MIC in the presence of LC100” value ([4]; strain ACBA ATCC 19606, LC 100 2 μg) was 0.195 µg/mL, the “Colistin MIC in the presence of LC100” value ([4]; strain ACBA ATCC 19606, LC 100 5 μg) was less than 0.0975 µg/mL and the “activity against Gram positive strains” value ([5]; in words) was “good activity”. The “antimicrobial effect on Gram positive bacteria” value (shortened to “antimicrobial effect”) ([5]; strain MRSA ATCC 43300) was 3.125, the “antimicrobial effect” value ([5]; strain MRSA ATCC 700699) was 3.125 and the “antimicrobial effect” value ([5]; strain MRSA DM 21455) was 3.125. For the same compound, the “antimicrobial effect” value ([5]; strain SA ATCC 6538) was 3.125, the “antimicrobial effect” value ([5]; strain SA ATCC 29213) was 3.125 and the “antimicrobial effect” value ([5]; strain SA DM 4400R) was 3.125. For the same compound, the “calcein leakage / disruption of vesicles” value [6] was “significant florescence was detected; also recorded: disrupts liposomes”.
